Results taken from patent US12723029B2, “Mitochondrial ATP inhibitors targeting the gamma subunit prevent metastasis” (LUNELLA BIOTECH, INC., priority 2020, dated 2026).

Tests used:
ATP5F1C = target: T1, ATP5F1C (Homo sapiens, UniProt P05496+P36542); experiment: Western blot of ATP5F1C protein expression in MDA-MB-231 2D monolayers; type: cell-based; settings: 0.1, 1 and 10 μM, especially 10 μM, 24-120 hours, relative to DMSO
T1 construct: Western blot analysis of MDA-MB-231 2D cell monolayers treated with Bedaquiline; endogenous in cells; host or cells: MDA-MB-231 (ATCC)
Procedure: The binding of Bedaquiline to ATP5F1C in situ induces degradation of the protein. […] The effect was both time- and concentration-dependent.
(§1) Western Blotting: Cells were lysed in RIPA buffer (Sigma Aldrich, Inc.) containing one tablet of Complete TM inhibitor mix (Roche Applied Science, Indianapolis) and one tablet of PhosSTOP™ […] per 10 mL of buffer and loaded onto SDS-polyacrylamide gels. The gels were transferred to 0.2 μm nitrocellulose membranes, using the Trans-Blot Turbo Transfer System (Bio-Rad, Inc.) Membranes were incubated with the respective primary antibodies diluted in Tris-buffered saline, 0.1% Tween 20 (Sigma Aldrich, Inc.) and 5% Bovine Serum Albumin (BSA; Sigma Aldrich Inc.) (TBST), and incubated overnight at 4° C. Then, the blots were washed and incubated with appropriate secondary antibodies and detected using Super Signal West Pico Chemiluminescent Substrate (Thermo Scientific, Inc.), using the G-Box (Syngene, Inc). Antibodies and their dilutions used for Western blot analysis were as follows: mouse anti-ATP5F1C 1:500, mouse anti-β-actin 1:10,000, rabbit anti-PARP 1:1,000, rabbit anti-p21 1:1,000. The resulting immune-blot images were acquired using GeneSys Software (Syngene, Inc.).

[1] = test system: mitochondrial ATP production in MDA-MB-231 cells; experiment: ATP assay using BioTracker ATP-Red 1 (flow cytometry); type: cell-based, human
Procedure: FIG. 7 compares the fold-change of BioTracker ATP-Red (signal mean) between the control and MDA-MB-231 cells treated with Bedaquiline. […] The data in FIG. 7 based on two-way ANOVA, Sidak's multiple comparisons test, *p<0.05, ** p<0.005, ***p<0.0005, ****p<0.0001.
ATP assay using BioTracker ATP-Red 1: Cells were stained with BioTracker ATP-Red 1 after various treatments. After 30 minutes of incubation, the cells were washed twice with DPBS, collected and dissociated into a single-cell suspension with a 40 μm cell strainer. The cells were analyzed using the Attune N×T Flow Cytometer. Means of the signal (at 570 nm) were compared.

MDA-MB-231 cells [2] = experiment: 2D monolayer growth, MDA-MB-231; type: cell-based, human; settings: 10 μM, time-dependent
MDA-MB-231 cells [3] = experiment: 3D anchorage independent growth (mammosphere formation) assay; type: cell-based, human
Procedure: 3D Anchorage Independent Growth Assay: This assay is also referred to as the mammosphere formation assay. A single-cell suspension was prepared using enzymatic, and manual disaggregation (25-g needle). Then, cells were plated at a density of 500 cells/cm^2 in mammosphere medium (DMEM-F12+1X B-27 Plus Supplement+20 ng/ml EGF+Pen/Strep) under non-adherent conditions, in culture dishes pre-coated with (2-hydroxyethylmethacrylate) (poly-HEMA, Sigma Aldrich Inc.), called “mammosphere plates.” Cells were grown for 5 days and maintained in a humidified incubator at 37° C. After 5 days of culture, 3D-mammospheres >50 μm were counted using an eye piece (“graticule”), and the percentage of cells plated which formed spheres was calculated and is referred to as percent mammosphere formation, and was normalized to one (1=100% MFE). 3D mammosphere formation efficiency (MFE) was analyzed in both the ATP-low and ATP-high sub-populations of cells. All 3D mammosphere experiments were performed in triplicate, at least 3 times independently.

MDA-MB-231 cells [4] = experiment: Cell cycle analysis by FACS; type: cell-based, human
Procedure: FIGS. 10A-10C show cell cycle populations for MDA-MB-231 cells treated with Bedaquiline (1 and 10 μM) or vehicle alone, after 48, 72 and 120 hours, respectively. Cell cycle analysis was performed using FACS. […] However, at 72 and 120 hours, a decrease in the S-phase population and a concomitant increase in the sub-G0-G1 population can be seen in FIGS. 10B and 10C. Two-way ANOVA, Sidak's multiple comparisons test, ns=not significant, *p<0.01, **p<0.001, ***p<0.0005.
Cell Cycle Analysis by FACS: Cell-cycle analysis was performed on the ATP-high and ATP-low cell sub-populations, by FACS analysis using the Attune N×T Flow Cytometer. Briefly, after trypsinization, the re-suspended cells were incubated with propidium iodide, as per the manufacturer's recommendations (Merck Millipore, Inc.). At least 25,000 events were analyzed per condition. Gated cells were categorized into cell-cycle stages.

MDA-MB-231 cells [5] = experiment: Cell migration assay (Transwells); type: cell-based, human; settings: 10 μM, 32 hours then 16 hours in Transwells
Procedure: MDA-MB-231 cells were cultured in presence of Bedaquiline (10 μM) for 32 hours and moved to the Transwells for 16 hours in presence of Bedaquiline (10 μM). Unpaired t-test, **p<0.005.
Cell Migration Assays: Briefly, 3.5×10^4 cells in 0.5 ml of serum-free DMEM with 0.1% BSA were added to the wells of 8-μm pore, non-coated membrane modified Boyden chambers (Transwells). The lower chambers contained 10% fetal bovine serum in DMEM to serve as a chemo-attractant. Cells were incubated at 37° C. and allowed to migrate throughout the course of 16 hours. Noninvasive cells were removed from the upper surface of the membrane by scrubbing with cotton swabs. Chambers were stained in 0.5% crystal violet diluted in 100% methanol for 30-60 min, rinsed in water and examined under a bright-field microscope. Values for invasion and migration were obtained by counting five fields per membrane (20× objective) and represent the average of three independent experiments.

MDA-MB-231 cells [6] = experiment: Live cell/dead cell analysis by FACS; type: cell-based, human; settings: 1 and 10 μM
Procedure: FIGS. 10D-10F show the results of live cell/dead cell analysis. MDA-MB-231 cells were treated with Bedaquiline (1 and 10 μM) or vehicle alone, for 48, 72 and 120 hours, and then subjected to live/dead analysis by FACS. […] However, at 72 and 120 hours (FIGS. 10E and 10F), a decrease in the live cell population and an increase in the dead cell population can be seen. […] Two-way ANOVA, Sidak's multiple comparisons test, ns=not significant, *p<0.01, **p<0.001, ***p<0.0005.

PARP = experiment: Western blot of PARP protein expression; type: cell-based, human; settings: MDA-MB; 0.1, 1 and 10 μM; 120 hours
Procedure: (§2) Beta-actin was used as a control for equal loading.
as §1

p21 = experiment: Western blot of p21 protein expression; type: cell-based, human; settings: MDA-MB; 0.1, 1 and 10 μM; 120 hours
Procedure: as §2, §1

MDA-MB-231 cells [7] = experiment: CAM assay: tumor growth and spontaneous metastasis of MDA-MB-231 xenografts; type: in vivo, chicken embryo (White Leghorn eggs)
chick embryos = experiment: CAM assay: embryo toxicity; design: species or system chicken (White Leghorn); settings: all concentrations tested in vivo; daily for 8 days
Procedure: Next, to test in vivo activity, the well-established CAM assay was used with MDA-MB-231 cells, to measure the effect of Bedaquiline effects on tumor growth, spontaneous metastasis and embryo toxicity. FIG. 11A illustrates the timeline for the CAM assay. An inoculum of 1×10^6 MDA-MB-231 cells was added onto the CAM of each egg (day E9) and then eggs were randomized into groups. On day E10, tumors were detectable and they were then treated daily for 8 days with vehicle alone (1% DMSO in PBS) or Bedaquiline. After 8 days of drug administration, on day E18, all tumors were weighed, and the lower CAM was collected to evaluate the number of metastatic cells, as analyzed by qPCR with specific primers for Human Alu sequences. Before each drug administration, treatment tolerability was evaluated by scoring the number of live and dead chicken embryos.
Tumor Growth, Metastasis and Embryo Toxicity Assays: Xenograft assays were carried out by INOVOTION (Société: 811310127), La Tronche-France. […] For tumor growth assays, at least 14 tumor samples were collected and analysed per group (N≥14). […] Genomic DNA was extracted from the CAM (commercial kit) and analyzed by qPCR with specific primers for Human Alu sequences. […] Before each administration, the treatment tolerability was evaluated by scoring the number of live and dead embryos.

MCF10A cells = experiment: 2D monolayer growth, MCF10A; settings: MCF10A normal control mammary epithelial cells; 10 μM

Structure (SMILES): COc1nc2ccc(Br)cc2cc1[C@@H](c1ccccc1)[C@@](O)(CCN(C)C)c1cccc2ccccc12 [Bedaquiline, (1R,2S)-1-(6-bromo-2-methoxyquinolin-3-yl)-4-(dimethylamino)-2-naphthalen-1-yl-1-phenylbutan-2-ol]
- levels of ATP5F1C protein expression (ATP5F1C): reduced in a sustained way
- inhibition at 10 µM ([1]; Homo sapiens, MDA-MB-231, 10 μM, 120 hours of treatment, read-out: maximal inhibition of mitochondrial ATP production): 75%
- 2D monolayer growth (MDA-MB-231 cells [2]): effectively inhibits 2D growth
- block of 3D mammosphere formation (MDA-MB-231 cells [3]; MDA-MB-231, 10 μM): ~ 65%
- S-phase population (MDA-MB-231 cells [4]; 1 and 10 μM, 72 and 120 hours): decrease
- sub-G0-G1 population (MDA-MB-231 cells [4]; 1 and 10 μM, 72 and 120 hours): increase
- cell cycle populations (MDA-MB-231 cells [4]; 1 and 10 μM, 48 hours): No effects were detectable
- increase in the sub-G0-G1 population (MDA-MB-231 cells [4]; after 120 hours of treatment): 2 fold
- reduction of cells in S-phase (MDA-MB-231 cells [4]; after 120 hours of treatment): 2 fold
- block of cell migration (MDA-MB-231 cells [5]): ~ 50%
- apoptotic cell population (early or late) (MDA-MB-231 cells [6]; 72 and 120 hours): no increase
- dead cell population (MDA-MB-231 cells [6]; 72 and 120 hours): increase
- live cell population (MDA-MB-231 cells [6]; 72 and 120 hours): decrease
- live/dead cell populations (MDA-MB-231 cells [6]; 48 hours): No effects were detectable
- PARP protein expression (PARP): decreased in a concentration-dependent manner
- p21 protein expression (p21): decreased in a concentration-dependent manner
- inhibition of spontaneous metastasis (MDA-MB-231 cells [7]; CAM, 120 μM treatment, daily for 8 days, qPCR Human Alu, vs control): 84%
- tumor growth (average tumor weight) (MDA-MB-231 cells [7]; CAM, treated daily for 8 days, day E18): no statistically significant effect
- toxicity for chick embryos (egg survival) (chick embryos): not toxic
- 2D monolayer growth (MCF10A cells): No effect

Structure (SMILES): CCCCCCCCCCCCCC(=O)OCCCCc1ccc2nc(OC)c([C@@H](c3ccccc3)[C@@](O)(CCN(C)C)c3cccc4ccccc34)cc2c1 [structure [4B]]
- potency relative to unconjugated Bedaquiline, inducing ATP-depletion ([1]; initial/early assessment): 2-5 fold
- potency relative to unconjugated Bedaquiline, inhibiting mammosphere formation (MDA-MB-231 cells [3]; initial/early assessment): 2-5 fold
- potency relative to unconjugated Bedaquiline, inhibiting spontaneous metastasis (MDA-MB-231 cells [7]; initial/early assessment, CAM assay): 2-5 fold
